Results on twelve molecules are retold here after US20040049072A1, “RXR modulators with improved pharmacologic profile” (priority 1999, published 2004).

As usually defined, the Ki is the equilibrium dissociation constant of an inhibitor or competing ligand from its target.

SMILES strings stand for the structures. Entries after “also recorded” stand apart in the source; their conditions may differ. Like-named read-outs stand apart in the source and are kept apart here.

One series has as its target T1, RXRα:PPARγ heterodimer (Homo sapiens, UniProt P19793).
T1 construct: expressed in transfected cells; host or cells: CV-1 cells
T1 sequence (P19793 1-462): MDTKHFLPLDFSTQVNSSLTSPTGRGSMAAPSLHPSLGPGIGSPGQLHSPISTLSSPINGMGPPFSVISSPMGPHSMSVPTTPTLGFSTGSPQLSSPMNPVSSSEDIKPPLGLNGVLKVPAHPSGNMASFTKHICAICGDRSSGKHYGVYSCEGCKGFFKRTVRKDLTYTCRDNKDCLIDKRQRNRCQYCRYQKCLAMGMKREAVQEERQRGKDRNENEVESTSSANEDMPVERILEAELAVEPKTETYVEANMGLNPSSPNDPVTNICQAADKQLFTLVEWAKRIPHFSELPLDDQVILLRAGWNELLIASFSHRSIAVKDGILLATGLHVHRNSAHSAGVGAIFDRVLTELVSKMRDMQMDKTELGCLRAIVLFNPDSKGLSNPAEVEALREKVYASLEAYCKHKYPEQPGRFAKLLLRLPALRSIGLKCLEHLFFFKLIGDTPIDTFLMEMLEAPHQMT
T1 sequence (P37231 1-505 partner): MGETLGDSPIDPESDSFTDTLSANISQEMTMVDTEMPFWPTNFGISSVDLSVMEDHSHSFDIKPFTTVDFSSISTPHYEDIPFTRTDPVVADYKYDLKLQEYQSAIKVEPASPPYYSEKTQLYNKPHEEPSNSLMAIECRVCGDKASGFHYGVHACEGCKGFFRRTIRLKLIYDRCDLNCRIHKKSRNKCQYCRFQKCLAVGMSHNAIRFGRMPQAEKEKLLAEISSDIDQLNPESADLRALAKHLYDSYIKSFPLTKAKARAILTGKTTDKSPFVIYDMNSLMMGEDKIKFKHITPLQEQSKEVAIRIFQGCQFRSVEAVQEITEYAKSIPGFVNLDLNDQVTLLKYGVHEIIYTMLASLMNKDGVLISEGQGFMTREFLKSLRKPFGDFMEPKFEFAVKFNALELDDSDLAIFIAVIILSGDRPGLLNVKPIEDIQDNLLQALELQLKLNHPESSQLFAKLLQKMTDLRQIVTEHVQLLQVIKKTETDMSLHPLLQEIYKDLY
The series is described as follows: RXR:PPARγ heterodimer co-transfection assay in CV-1 cells. It is filed as cell-based. The method, then:
(§1) For determination of agonist activity in the context of the RXR:RAR heterodimer or the RXR:PPARγ heterodimer, media containing compounds of the present invention in concentrations ranging from 10^−10 to 10^−5 M were added to the cells.
(§2) Compounds of the present invention were also tested for the ability to synergize with a PPARγ agonist in the context of an RXR heterodimer. […] Efficacy of the compounds of the present invention in the agonist and synergy assays was calculated as the maximum response obtained over the range of the dose response curve relative to the maximum response obtained by the reference agonist. Antagonist efficacy was determined as a function (%) of maximal inhibition.
To examine the effects of the compounds of the present invention on the transcriptional properties of the RXR:PPARγ, a heterodimer cotransfection assay as described above was employed.

The test system of a further series is db/db mouse. As to the kind of experiment: db/db mouse study (rodent model of Type II diabetes). To be noted: for insulin sensitizing activity with thyroid axis suppression and triglyceride elevations: rodent models of Type II Diabetes; for inhibition in vivo at 30 mg/kg: Mus musculus, po, 168 h, read-out: db/db mouse Glu. (D7); for db/db mouse Trigs. (D3): plasma triglycerides as % of control values, day 3, 30 mg/kg/day.

The next series addresses T2, RXRα (Homo sapiens, UniProt P19793).
T2 sequence (P19793 1-462): T1 sequence (P19793 1-462)
The series is described as follows: RXRα binding (competition with tritiated LGD1069). On the procedure:
Non-specific binding was defined as that binding remaining in the presence of 500 nM of the appropriate unlabelled compound. At the end of the incubation period, bound ligand was separated from free. The amount of bound tritiated retinoid was determined by liquid scintillation counting of an aliquot (700 μL) of the supernatant fluid or the hydroxylapatite pellet.
After correcting for non-specific binding, IC50 values were determined. […] The IC50 value was determined graphically from a log-logit plot of the data. The Ki values were determined by application of the Cheng-Prussof equation to the IC50 values, the labeled ligand concentration and the Kd of the labeled ligand.

The target in the next series is T3, RXRα:RAR heterodimer (Homo sapiens, UniProt P19793).
T3 construct: expressed in transfected cells; host or cells: CV-1 cells
T3 sequence (P19793 1-462): T1 sequence (P19793 1-462)
As to the kind of experiment: RXR:RAR heterodimer co-transfection assay in CV-1 cells. It is filed as cell-based. The method, then:
as §1, §2
However, when RAR is occupied, typical RXR agonists activate the heterodimer. […] To examine the effects of the compounds of the present invention on the transcriptional properties of the RXR:RAR heterodimer, a heterodimer cotransfection assay as described above was employed.

A further series deals with T4, RXRα homodimer (RXR:RXR) (Homo sapiens, UniProt P19793).
T4 sequence (P19793 1-462): T1 sequence (P19793 1-462)
The series is described as follows: RXR homodimer co-transfection assay in CV-1 cells. It is filed as cell-based. Conditions: CV-1, read-out: RXR:RAR CV-1 (%) Ag. From the text: In the co-transfection assay, cloned cDNA for one or more IRs (e.g., human RARα, RXRα, or PPARγ), alone or in combination (i.e. for heterodimer assays) under the control of a constitutive promoter (e.g., the SV 40, RSV or CMV promoter) is introduced by transfection (a procedure to introduce exogenous genes into cells) into a background cell substantially devoid of endogenous IRs. These introduced gene(s) direct the recipient cells to make the IR protein(s) of interest. A further gene is also introduced (co-transfected) into the same cells in conjunction with the IR gene(s). This further gene, comprising the cDNA for a reporter protein, such as firefly luciferase (LUC), controlled by an appropriate hormone responsive promoter containing a hormone response element (HRE). This reporter plasmid functions as a reporter for the transcriptional-modulating activity of the target IR(s). Thus, the reporter acts as a surrogate for the products (mRNA then protein) normally expressed by a gene under control of the target receptor(s) and their native hormone(s).
Exposing the transfected cells to an agonist ligand compound increases reporter activity in the transfected cells. This activity can be conveniently measured, e.g., by increasing luciferase production and enzymatic activity, which reflects compound-dependent, IR-mediated increases in reporter transcription. […] Increasing concentrations of an antagonist will decrease the reporter signal (e.g., luciferase production). The co-transfection assay is therefore useful to detect both agonists and antagonists of specific IRs. Furthermore, it determines not only whether a compound interacts with a particular IR, but whether this interaction mimics (agonizes) or blocks (antagonizes) the effects of native or synthetic regulatory molecules on target gene expression, as well as the specificity and strength of this interaction.
The receptor expression plasmid was cotransfected along with a reporter plasmid at 50 ng/well, the internal control plasmid pRS-β-Gal at 50 ng/well and filler DNA, pGEM, at 90 ng/well.
Six hours after transfection, media was removed and the cells were washed with phosphate-buffered saline (PBS). Media containing compounds of the present invention in concentrations ranging from 10^−10 to 10^−5 M were added to the cells. […] Retinoids were dissolved in dimethylsulfoxide for use in the transcriptional activation assays. Two to three replicates were used for each sample. Transfections and subsequent procedures were performed on a Biomek 1000 automated workstation.
After 40 hours, the cells were washed with PBS, lysed with a detergent-based buffer and assayed for LUC and β-Gal activities using a luminometer or spectrophotometer, respectively. For each replicate, the normalized response (NR) was calculated as: […]
The mean and standard error of the mean (SEM) of the NR were calculated. Data were plotted as the response of the compound compared to the reference compounds over the range of the dose-response curve. […] Antagonist activity was determined by testing the amount of LUC expression in the presence of the RXR agonists described above at the EC50 concentration for such known compounds. […] In addition, the efficacy of antagonists was determined as a function (%) of maximal inhibition.

[1] abbreviates: Table 2, from IC50 by Cheng-Prussof equation, tritiated LGD1069, read-out: Bind RXRα Ki.
Where [2] appears, read: CV-1, read-out: RXR:RAR CV-1 (%) Ag.
[3] abbreviates: Table 2, maximal response in presence of 100 nM BRL49653 relative to BRL49653 alone.

Procedure for db/db mouse: Mice (obtained from Jackson Laboratory), ZDF rats (obtained from Genetic Models Inc.) and fa/fa rats (obtained from either Charles River, or Harlan) were maintained on 12-hour light/dark cycle. […] Compounds were administered at the specified doses by oral gavage on the morning of each day of any experiment. Blood samples were obtained 3 hours after dosing from fed animals under anesthesia and collected into heparinized capillary tubes from the tail vein.

As to `CN(CCOc1ccc(CC2SC(=O)NC2=O)cc1)c1ccccn1` (stereo not shown) [BRL 49653, reference compound], the “RXRα:PPARγ Heterodimer Cotransfection Assay Agonist Efficacy (%)” value on RXRα:PPARγ heterodimer (maximal response relative to response of BRL 49653) is given as 100%.

As to `CCCCCOc1c(\C(C)=C/C=C/C(C)=C/C(=O)O)cc(C(C)C)cc1C(C)C` [Compound L7], the “insulin sensitizing activity with thyroid axis suppression and triglyceride elevations” value (shortened to “insulin sensitizing activity”) in the series with db/db mouse was “maintain the desirable insulin sensitizing activity and eliminate or reduce both the suppression of the thyroid axis and triglyceride elevations; also recorded: maintain the desirable insulin sensitizing activity and minimize both the suppression of the thyroid axis and triglyceride elevations”.

On to `CCCOc1c(C2=C(/C=C/C(C)=C/C(=O)O)CCC2)cc(C(C)C)cc1C(C)C` [Compound L8], for which the “insulin sensitizing activity” value in the series with db/db mouse is “maintain the desirable insulin sensitizing activity and minimize both the suppression of the thyroid axis and triglyceride elevations”.

Turning to `CCCCOc1c(C2=C(/C=C/C(C)=C/C(=O)O)CCC2)cc(C(C)C)cc1C(C)C` [Compound L9], the “insulin sensitizing activity” value with db/db mouse is “maintain the desirable insulin sensitizing activity and minimize both the suppression of the thyroid axis and triglyceride elevations”.

Take `C/C(=C/C=C/C(C)=C/C(=O)O)c1cc(C(C)(C)C)cc(C(C)(C)C)c1OCC(F)F` [Compound L13]: in the series with db/db mouse, the inhibition in vivo at 30 mg/kg came out at 54%; the “db/db mouse Trigs. (D3)” value is reported as 109%; the “insulin sensitizing activity” value is “maintain the desirable insulin sensitizing activity and minimize both the suppression of the thyroid axis and triglyceride elevations”.

With `CCOc1c(\C(C)=C/C=C/C(C)=C/C(=O)O)cc(C(F)(F)C(F)(F)F)cc1C(C)C` [Compound L15], the Ki on RXRα (setting [1]) turned out to be 6 nM. The Emax at RXRα:RAR heterodimer (setting [2]) is 1%. For the same molecule, in the series with db/db mouse, the inhibition in vivo at 30 mg/kg stood at 80%; the “db/db mouse Trigs. (D3)” value came to 156%; the “insulin sensitizing activity” value is “maintain the desirable insulin sensitizing activity and minimize both the suppression of the thyroid axis and triglyceride elevations”. Besides, on RXRα homodimer (RXR:RXR), the Emax was 44%. The “PPARγ CV-1 (%) Synergy” value at RXRα:PPARγ heterodimer was 99%.

In turn, `CCc1cc(-c2ccsc2/C=C/C(C)=C/C(=O)O)c(OCCCC(F)(F)F)c(C(C)(C)C)c1` [Compound L16] yielded an inhibition constant (Ki) on RXRα of 2 nM. In addition, the Emax on RXRα:RAR heterodimer (setting [2]) came to 2%. Besides, in the series on db/db mouse, the inhibition in vivo at 30 mg/kg was determined as 37%; the “db/db mouse Trigs. (D3)” value is given as 79%; the “insulin sensitizing activity” value is “maintain the desirable insulin sensitizing activity and minimize both the suppression of the thyroid axis and triglyceride elevations”. For the same molecule, the Emax on RXRα homodimer (RXR:RXR) was determined as 1%. For the same molecule, the “PPARγ CV-1 (%) Synergy” value at RXRα:PPARγ heterodimer (setting [3]) stood at 64%.

`CCc1cc(-c2ccsc2/C=C/C(C)=C/C(=O)O)c(OCCCF)c(C2CCCC2)c1` [Compound L17] had a Ki at RXRα of 8 nM. Further, on RXRα:RAR heterodimer (setting [2]), the Emax amounted to 4%. Also, in the series with db/db mouse, the inhibition in vivo at 30 mg/kg is 29%; the “db/db mouse Trigs. (D3)” value is recorded as 75%; the “insulin sensitizing activity” value was “maintain the desirable insulin sensitizing activity and minimize both the suppression of the thyroid axis and triglyceride elevations”. In addition, the Emax on RXRα homodimer (RXR:RXR) amounted to 3%. Further, the “PPARγ CV-1 (%) Synergy” value at RXRα:PPARγ heterodimer (setting [3]) is 88%.

As to `CCC(C)(C)c1cc(\C(C)=C/C=C/C(C)=C/C(=O)O)c(OCC(F)F)c(C(C)(C)CC)c1` [Compound L18], on RXRα (setting [1]), the Ki is 29 nM. Besides, at RXRα:RAR heterodimer (setting [2]), the Emax stood at 1%. In the series with db/db mouse, the inhibition in vivo at 30 mg/kg turned out to be 45%; the “db/db mouse Trigs. (D3)” value is 134%; the “insulin sensitizing activity” value was “maintain the desirable insulin sensitizing activity and minimize both the suppression of the thyroid axis and triglyceride elevations”. Besides, the Emax at RXRα homodimer (RXR:RXR) was 2%. The “PPARγ CV-1 (%) Synergy” value at RXRα:PPARγ heterodimer (setting [3]) is on record as 69%.

With `C/C(=C/C=C/C(C)=C/C(=O)O)c1cc(C(C)(C)C)cc(C(C)(C)C)c1OCC(F)(F)F` [Compound L23], the Ki on RXRα (setting [1]) came to 27 nM. Further, the Emax on RXRα:RAR heterodimer (setting [2]) amounted to 7%; at RXRα homodimer (RXR:RXR), 1%. For the same molecule, the inhibition in vivo at 30 mg/kg in the series on db/db mouse is 53%.

Regarding `C/C(=C\c1ccc(C(=O)O)cc1)c1ccc2c(c1)C(C)(C)CCC2(C)C` [TTNPB, (E)-4-[2-(5,6,7,8-tetrahydro-5,5,8,8-tetramethyl-2-naphthalenyl)-1-propenyl]benzoic acid, reference compound], the Emax on RXRα:RAR heterodimer (CV-1, read-out: RXRα:RAR Heterodimer Cotransfection Assay Agonist Efficacy (%)) was 115%. Moreover, the “agonist activity on the RXR:RAR heterodimer” value on RXRα:RAR heterodimer (compound alone) was “strongly transactivate”.

For the molecule `CN(C)C(=N)N=C(N)N` [metformin, reference compound], in the series with db/db mouse (7 week old db/db mice, 300 mg/kg daily oral gavage), the “efficacy over 3 subsequent weeks” value is reported as “decreases”. Besides, the plasma glucose result in the series on db/db mouse (7 week old db/db mice, 300 mg/kg daily oral gavage, maximum effect after first week) was “lowers plasma glucose”.
